Measured values published in ChEMBL document CHEMBL1201862, “PubChem BioAssay data set” (2004).
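Cultured in 96-well plates, cells were exposed to test compound for 48 hours across five concentrations. Here, GI50 denotes the concentration required for 50% inhibition of growth.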 The source made the active and inactive calls. Cut-off read from the data, not from the text of the source: active = GI50 up to about 1.1 µM and inactive = higher.

Key:
Assay in all cases: NCI-60 cell line screen, 48 h
IGROV-1 = system: IGROV-1
NCI-H460 = system: NCI-H460
EKVX = system: EKVX
PC-3 = system: PC-3
NCI-H23 = system: NCI-H23
UO-31 = system: UO-31
SNB-19 = system: SNB-19
UACC-257 = system: UACC-257
U-251 = system: U-251
RXF 393 = system: RXF 393
Malme-3M = system: Malme-3M
UACC-62 = system: UACC-62
SK-MEL-2 = system: SK-MEL-2
OVCAR-4 = system: OVCAR-4
SF-295 = system: SF-295
SF-268 = system: SF-268
LOX IMVI = system: LOX IMVI
786-0 = system: 786-0
HCC 2998 = system: HCC 2998
CAKI-1 = system: CAKI-1
OVCAR-8 = system: OVCAR-8
RPMI-8226 = system: RPMI-8226
COLO 205 = system: COLO 205
BT-549 = system: BT-549
M14 = system: M14
CCRF-CEM = system: CCRF-CEM
SF-539 = system: SF-539
SR = system: SR
SN12C = system: SN12C
HOP-62 = system: HOP-62
HL-60 = system: HL-60
NCI/ADR-RES = system: NCI/ADR-RES
KM12 = system: KM12
A549 = system: A549
SW-620 = system: SW-620
TK-10 = system: TK-10
MOLT-4 = system: MOLT-4
NCI-H522 = system: NCI-H522
HCT-15 = system: HCT-15
ACHN = system: ACHN
Hs-578T = system: Hs-578T
DU-145 = system: DU-145
OVCAR-5 = system: OVCAR-5
MDA-N = system: MDA-N
SK-OV-3 = system: SK-OV-3
MDA-MB-435 = system: MDA-MB-435
MDA-MB-231 = system: MDA-MB-231
MCF7 = system: MCF7
HCT-116 = system: HCT-116
HT-29 = system: HT-29
K562 = system: K562
T47D = system: T47D
HOP-92 = system: HOP-92
OVCAR-3 = system: OVCAR-3
SK-MEL-5 = system: SK-MEL-5
SNB-75 = system: SNB-75
SK-MEL-28 = system: SK-MEL-28
NCI-H226 = system: NCI-H226

## Fc1cccc(F)c1C1SCc2nc3cc(Cl)c(Cl)cc3n21 (stereo not drawn)
IGROV-1
  GI50: > 100 µM (inactive)
NCI-H460
  GI50: > 100 µM (inactive)
EKVX
  GI50: > 100 µM (inactive)
PC-3
  GI50: > 100 µM (inactive)
NCI-H23
  GI50: > 100 µM (inactive)
UO-31
  GI50: > 100 µM (inactive)
SNB-19
  GI50: > 100 µM (inactive)
UACC-257
  GI50: > 100 µM (inactive)
U-251
  GI50: > 100 µM (inactive)
RXF 393
  GI50: > 100 µM (inactive)
Malme-3M
  GI50: > 100 µM (inactive)
UACC-62
  GI50: > 100 µM (inactive)
SK-MEL-2
  GI50: > 100 µM (inactive)
OVCAR-4
  GI50: > 100 µM (inactive)
SF-295
  GI50: > 100 µM (inactive)
SF-268
  GI50: > 100 µM (inactive)
LOX IMVI
  GI50: > 100 µM (inactive)
786-0
  GI50: > 73.5 µM (inactive)
HCC 2998
  GI50: > 100 µM (inactive)
CAKI-1
  GI50: > 100 µM (inactive)
OVCAR-8
  GI50: > 100 µM (inactive)
RPMI-8226
  GI50: > 100 µM (inactive)
COLO 205
  GI50: > 100 µM (inactive)
BT-549
  GI50: > 100 µM (inactive)
M14
  GI50: > 100 µM (inactive)
CCRF-CEM
  GI50: > 100 µM (inactive)
SF-539
  GI50: > 100 µM (inactive)
SR
  GI50: > 100 µM (inactive)
SN12C
  GI50: > 100 µM (inactive)
HOP-62
  GI50: > 100 µM (inactive)
HL-60
  GI50: > 100 µM (inactive)
NCI/ADR-RES
  GI50: > 100 µM (inactive)
KM12
  GI50: > 100 µM (inactive)
A549
  GI50: > 100 µM (inactive)
SW-620
  GI50: > 100 µM (inactive)
TK-10
  GI50: > 100 µM (inactive)
MOLT-4
  GI50: > 100 µM (inactive)
NCI-H522
  GI50: > 100 µM (inactive)
HCT-15
  GI50: > 100 µM
ACHN
  GI50: > 100 µM (inactive)
Hs-578T
  GI50: > 100 µM (inactive)
DU-145
  GI50: > 100 µM (inactive)
OVCAR-5
  GI50: > 100 µM (inactive)
MDA-N
  GI50: > 100 µM (inactive)
SK-OV-3
  GI50: > 100 µM (inactive)
MDA-MB-435
  GI50: > 100 µM (inactive)
MDA-MB-231
  GI50: > 100 µM (inactive)
MCF7
  GI50: > 100 µM (inactive)
HCT-116
  GI50: > 100 µM (inactive)
HT-29
  GI50: > 100 µM (inactive)
K562
  GI50: > 100 µM (inactive)
T47D
  GI50: > 100 µM (inactive)
HOP-92
  GI50: 42.4 µM (inactive)
OVCAR-3
  GI50: > 100 µM (inactive)
SK-MEL-5
  GI50: > 100 µM (inactive)
SNB-75
  GI50: 95.7 µM (inactive)
SK-MEL-28
  GI50: > 100 µM (inactive)

## COc1ccc(/C=C2\C[C@H]3[C@@H]4CCC5=C/C(=N/O)CC[C@]5(C)[C@H]4CC[C@]3(C)\C2=N\O)cc1
IGROV-1
  GI50: 37.3 µM (inactive)
NCI-H460
  GI50: 6.59 µM (inactive)
EKVX
  GI50: 12.5 µM (inactive)
PC-3
  GI50: 8.17 µM (inactive)
NCI-H23
  GI50: 19.5 µM (inactive)
UO-31
  GI50: 4.53 µM (inactive)
SNB-19
  GI50: 20 µM (inactive)
UACC-257
  GI50: 30.1 µM (inactive)
U-251
  GI50: 25.3 µM (inactive)
RXF 393
  GI50: 7.1 µM (inactive)
Malme-3M
  GI50: 34.1 µM (inactive)
UACC-62
  GI50: 14.5 µM (inactive)
SK-MEL-2
  GI50: 22.2 µM (inactive)
OVCAR-4
  GI50: 25.7 µM (inactive)
SF-295
  GI50: 12.6 µM (inactive)
SF-268
  GI50: 16.9 µM (inactive)
LOX IMVI
  GI50: 17.9 µM (inactive)
786-0
  GI50: 13.1 µM (inactive)
HCC 2998
  GI50: 15.8 µM (inactive)
CAKI-1
  GI50: 38.3 µM (inactive)
OVCAR-8
  GI50: 9.42 µM (inactive)
RPMI-8226
  GI50: 5.12 µM (inactive)
COLO 205
  GI50: 14.5 µM (inactive)
BT-549
  GI50: 15.9 µM (inactive)
M14
  GI50: 12.4 µM (inactive)
NCI-H226
  GI50: 19.1 µM (inactive)
SR
  GI50: 3.99 µM (inactive)
SN12C
  GI50: 14.1 µM (inactive)
HOP-62
  GI50: 34.4 µM (inactive)
HL-60
  GI50: < 0.01 µM (active)
NCI/ADR-RES
  GI50: 8.18 µM (inactive)
KM12
  GI50: 12.2 µM (inactive)
A549
  GI50: 5.01 µM (inactive)
SW-620
  GI50: 36.9 µM (inactive)
TK-10
  GI50: 37.1 µM (inactive)
MOLT-4
  GI50: 6.7 µM (inactive)
NCI-H522
  GI50: 14.9 µM (inactive)
HCT-15
  GI50: 10.6 µM
ACHN
  GI50: 5.52 µM (inactive)
Hs-578T
  GI50: 28.5 µM (inactive)
DU-145
  GI50: 13.4 µM (inactive)
OVCAR-5
  GI50: 36.3 µM (inactive)
MDA-N
  GI50: 15.6 µM (inactive)
SK-OV-3
  GI50: 42.7 µM (inactive)
MDA-MB-435
  GI50: 26.5 µM (inactive)
MDA-MB-231
  GI50: 31.6 µM (inactive)
MCF7
  GI50: 5.01 µM (inactive)
HCT-116
  GI50: 5.21 µM (inactive)
HT-29
  GI50: 6.85 µM (inactive)
K562
  GI50: 6.47 µM (inactive)
T47D
  GI50: 7.98 µM (inactive)
HOP-92
  GI50: 17.3 µM (inactive)
OVCAR-3
  GI50: 10.2 µM (inactive)
SK-MEL-5
  GI50: 11 µM (inactive)
SNB-75
  GI50: 19.7 µM (inactive)
SK-MEL-28
  GI50: 61.8 µM (inactive)
